Patent US11903387B2 (priority 2016, dated 2024)

Tests used:
[1] = tested on: Phytophthora infestans; assay: whole plant or invertebrate; format: in vivo
[2] = tested on: Pseudoperonospora cubensis; assay: Test 2: control effect against cucumber downy mildew; format: in vivo
[3] = component (b) alone 0.4 ppm, average of three repeats
[4] = component (b) alone 2 ppm, average of three repeats
[5] = component (b) alone 10 ppm, average of three repeats

| Molecule | Test 1 Measured ([1]; component (b) alone, 2 ppm) | Test 1 Measured preventive value ([1]; component (b) alone, 2 ppm) | Test 1 Measured ([1]; component (b) alone, 10 ppm) | Test 1 Measured preventive value ([1]; component (b) alone, 10 ppm) | Test 2 Measured ([2]; component (b) alone, 2 ppm) | Test 2 Measured preventive value ([2]; component (b) alone, 2 ppm) | Test 2 Measured ([2]; component (b) alone, 10 ppm) | Test 2 Measured preventive value ([2]; component (b) alone, 10 ppm) | Test 2 Measured preventive value ([2]; component (b) alone, 50 ppm) | Test 1 Measured ([1]; component (b) alone, 50 ppm) | Test 1 Measured preventive value ([1]; component (b) alone, 50 ppm) | Test 2 Measured ([2]; component (b) alone, 50 ppm) | further results |
| --- | --- | --- | --- | --- | --- | --- | --- | --- | --- | --- | --- | --- | --- |
| COC(=O)CC(NC(=O)[C@@H](NC(=O)OC(C)C)C(C)C)c1ccc(Cl)cc1 (some centres unmarked) [Valifenalate] | 45.2 | 51.7 | 97.0 | 96.2 | 51.8 | 57.5 | 93 | 93.5 |  |  |  |  | Test 1 Measured preventive value [1, 3]: 20.0; Test 1 Measured preventive value [1, 4]: 51.7; Test 1 Measured preventive value [1, 5]: 96.2; Test 1 Measured ([1]; component (b) alone, 0.4 ppm): 10.0; Test 1 Measured preventive value ([1]; component (b) alone, 0.4 ppm): 20.0; Test 2 Measured preventive value [2, 3]: 0; Test 2 Measured preventive value [2, 4]: 57.5; Test 2 Measured preventive value [2, 5]: 93.5; Test 2 Measured ([2]; component (b) alone, 0.4 ppm): 4; Test 2 Measured preventive value ([2]; component (b) alone, 0.4 ppm): 0 |
| CCC(C)(NC(=O)c1cc(Cl)c(C)c(Cl)c1)C(=O)CCl (centres unmarked) [Zoxamide] |  |  |  |  |  | 94 |  | 97.3 | 98.8 |  |  |  | pest or weed control at 2 ppm ([1]; Phytophthora infestans, in Solanum lycopersicum, read-out: Test 1 Measured preventive value, component (b) alone, 2 ppm): 83.3%; pest or weed control at 10 ppm ([1]; Phytophthora infestans, in Solanum lycopersicum, read-out: Test 1 Measured preventive value, component (b) alone, 10 ppm): 95%; pest or weed control at 50 ppm ([1]; Phytophthora infestans, in Solanum lycopersicum, read-out: Test 1 Measured preventive value, component (b) alone, 50 ppm): 99% |
| Basic copper sulfate |  |  |  |  |  |  |  |  |  |  |  |  | Test 1 Measured ([1]; component (b) alone, 20 ppm): 55; Test 1 Measured preventive value ([1]; component (b) alone, 20 ppm): 71.7; Test 1 Measured ([1]; component (b) alone, 100 ppm): 90.7; Test 1 Measured preventive value ([1]; component (b) alone, 100 ppm): 92.5; Test 1 Measured ([1]; component (b) alone, 500 ppm): 100; Test 1 Measured preventive value ([1]; component (b) alone, 500 ppm): 100; Test 2 Measured ([2]; component (b) alone, 20 ppm): 32; Test 2 Measured preventive value ([2]; component (b) alone, 20 ppm): 18.8; Test 2 Measured ([2]; component (b) alone, 100 ppm): 80.9; Test 2 Measured preventive value ([2]; component (b) alone, 100 ppm): 82; Test 2 Measured ([2]; component (b) alone, 500 ppm): 95; Test 2 Measured preventive value ([2]; component (b) alone, 500 ppm): 97 |
| Mancozeb | 21.8 | 11.7 | 80.5 | 84.2 | 33 |  | 100 | 99 | 100 | 100.0 | 100.0 | 100 |  |
| Propineb | 0.0 | 0.0 | 36.1 | 48.3 | 17.5 | 7.5 | 95 | 94.3 | 100 | 99.0 | 98.3 | 100 |  |
